Values quoted from earlier work in patent US20230099183A1, “STEVIOL GLYCOSIDE AND GLYCERIN FORMULATIONS FOR FOOD AND BEVERAGES” (Sweegen, Inc., priority 2021, published 2023).

What was measured:
[1] = background statement on natural steviol glycosides
[2] = background statement; concentration in food or beverage

| Compound | degree of sweetness, times sweeter than sucrose [1] | concentration above which bitterness is perceptible [2] |
| --- | --- | --- |
| C=C1C[C@@]23CC[C@H]4[C@@](C)(CCC[C@@]4(C)C(=O)O[C@@H]4O[C@H](CO)[C@@H](O)[C@H](O)[C@H]4O)[C@@H]2CC[C@]1(O[C@@H]1O[C@H](CO)[C@@H](O)[C@H](O)[C@H]1O[C@@H]1O[C@@H](C)[C@H](O)[C@@H](O)[C@H]1O)C3 [Dulcoside A] | about 30 times sweeter than sucrose |  |
| Rebaudioside C | 40-60 times sweeter than sucrose |  |
| C=C1C[C@@]23CC[C@H]4[C@@](C)(CCC[C@@]4(C)C(=O)O[C@@H]4O[C@H](CO)[C@@H](O)[C@H](O)[C@H]4O)[C@@H]2CC[C@]1(O[C@@H]1O[C@H](CO)[C@@H](O)[C@H](O)[C@H]1O[C@@H]1O[C@H](CO)[C@@H](O)[C@H](O)[C@H]1O)C3 [stevioside] | 100-150 times sweeter than sucrose |  |
| C=C1C[C@@]23CC[C@H]4[C@@](C)(CCC[C@@]4(C)C(=O)O[C@@H]4O[C@H](CO)[C@@H](O)[C@H](O)[C@H]4O)[C@@H]2CC[C@]1(O[C@@H]1O[C@H](CO)[C@@H](O)[C@H](O[C@@H]2O[C@H](CO)[C@@H](O)[C@H](O)[C@H]2O)[C@H]1O[C@@H]1O[C@H](CO)[C@@H](O)[C@H](O)[C@H]1O)C3 [Reb A] |  | above 200 ppm |
